Measured values published in PMC11062899, “De novo development of small cyclic peptides that are orally bioavailable” (Nature Chemical Biology, 2023).
Values joined by “and” are separate entries in the source; they are usually repeats but may differ in a detail not shown here. Identical values can stand only once.

Columns and labels:
human α-thrombin = human α-thrombin (Homo sapiens, UniProt P00734); experiment: Sub-library screen for active and permeable cyclic peptides (PAMPA plus thrombin inhibition); format: biochemical; conditions: crude, slopes normalized to DMSO; for Residual thrombin activity: Top sample: PAMPA acceptor well after 14 h, 5 μM donor; for Residual thrombin activity: Equilibrated sample: donor sample diluted to theoretical equilibrium (1 μM in assay)
Method in brief: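 Acylated cyclic peptides at 5 μM in PBS pH 7.4 with 5% DMSO were run through PAMPA for 14 h at room temperature. Acceptor wells and a diluted donor sample at 3 μM, representing maximum permeability, were preincubated 10 min with human α-thrombin (6 nM stock). Z-Gly-Gly-Arg-AMC (150 μM stock) fluorescence was then read for 30 min at 25 °C, and inhibition was taken against a no-peptide control.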

[1] = Passive artificial membrane permeability (PAMPA)

Residual thrombin activity: Top sample (human α-thrombin)	Residual thrombin activity: Equilibrated sample (human α-thrombin)	other results	SMILES
103.6	102.0	–	O=C1C[C@H]2CCCN2C(=O)[C@H](Cc2ccc(C(F)(F)F)cc2)NC(=O)[C@@H](NC(=O)c2ccc(Cl)s2)CCCSC/C=C/CSCCN1 [C3-X36-L4]
105.6	108.0	–	O=C1C[C@H]2CCCN2C(=O)[C@H](Cc2ccc(C(F)(F)F)cc2)NC(=O)[C@@H](NC(=O)c2ccc(Cl)s2)CCCSCc2cccc(c2)CSCCN1 [C3-X36-L5]
96.6	97.7	–	O=C1C[C@H]2CCCN2C(=O)[C@H](Cc2ccc(C(F)(F)F)cc2)NC(=O)[C@@H](NC(=O)c2ccc(Cl)s2)CCCSCc2ccccc2CSCCN1 [C3-X36-L6]
101.7	101.7	–	O=C1CSCCC[C@H](NC(=O)c2ccc(Cl)s2)C(=O)N[C@@H](Cc2ccc(C(F)(F)F)cc2)C(=O)N2CCC[C@@H]2CC(=O)NCCSC1 [C3-X36-L7]
78.3	49.4	–	Cc1cccc(C[C@@H]2NC(=O)[C@@H](NC(=O)c3ccc(Cl)s3)CCCSCc3cccc(n3)CSCCNC(=O)C[C@H]3CCCN3C2=O)c1 [C3-X37-L1]
92.4	51.6	–	Cc1cccc(C[C@@H]2NC(=O)[C@@H](NC(=O)c3ccc(Cl)s3)CCCSCCS(=O)(=O)CCSCCNC(=O)C[C@H]3CCCN3C2=O)c1 [C3-X37-L2]
90.5	68.7	–	Cc1cccc(C[C@@H]2NC(=O)[C@@H](NC(=O)c3ccc(Cl)s3)CCCSCc3ccc(cc3)CSCCNC(=O)C[C@H]3CCCN3C2=O)c1 [C3-X37-L3]
84.2	63.6	–	Cc1cccc(C[C@@H]2NC(=O)[C@@H](NC(=O)c3ccc(Cl)s3)CCCSC/C=C/CSCCNC(=O)C[C@H]3CCCN3C2=O)c1 [C3-X37-L4]
100.9	83.4	–	Cc1cccc(C[C@@H]2NC(=O)[C@@H](NC(=O)c3ccc(Cl)s3)CCCSCc3cccc(c3)CSCCNC(=O)C[C@H]3CCCN3C2=O)c1 [C3-X37-L5]
92.8	79.2	–	Cc1cccc(C[C@@H]2NC(=O)[C@@H](NC(=O)c3ccc(Cl)s3)CCCSCc3ccccc3CSCCNC(=O)C[C@H]3CCCN3C2=O)c1 [C3-X37-L6]
84.8	58.3	–	Cc1cccc(C[C@@H]2NC(=O)[C@@H](NC(=O)c3ccc(Cl)s3)CCCSCC(=O)CSCCNC(=O)C[C@H]3CCCN3C2=O)c1 [C3-X37-L7]
–	–	PAMPA permeability: % permeability ([1]; 50 μM, 12–18 h, acceptor concentration relative to equilibrium): 71 ± 9%; Permeability% Average ([1]; 50 μM, 13 h (Fig. 5d)): 91.0%; Permeability% (single replicates R1–R3) ([1]; 50 μM, 13 h (Fig. 5d), listed as Probranolol): 87.80% and 90.16% and 95.18%; Papp at 50 μM ([1]; PAMPA, pH 7.4): 12.3 ×10⁻⁶ cm/s; Permeability% Average ([1]; top well sample vs theoretical equilibrium sample (TIC), average of R1-R3): 71.1%; Permeability% ([1]; top well sample vs theoretical equilibrium sample (TIC), single replicates R1-R3, listed as Probranolol): 79.61% and 72.27% and 61.48%	CC(C)NCC(O)COc1cccc2ccccc12 (stereo not shown) [Propranolol, reference compound]
